Measured values as given in patent US10946099B2, “Compositions for photodynamic therapy and fluorescence diagnosis of cancers and other diseases” (VISION GLOBAL HOLDINGS LIMITED, priority 2017, dated 2021).

Key:
[1] = Fluorescence emission spectroscopy; type: physicochemical
From the text: A BMG fluostar spectrofluorophotometer was used to record fluorescent emissions of PpIX or PpIX-TF conjugate (referred to herein as TF01) suspended in aqueous buffer. A UV-vis spectrophotometer was used to record the absorbance spectra of PpIX and TF.

[2] = Cell phototoxicity assay under different dosages of 635-nm laser excitation (FIG. 16); type: cell-based; settings: when laser dosage were increased (635-nm laser, 3 J/cm^2 to 18 J/cm^2)
Description: (§1) To determine cell viability under dark conditions, cells (1×10^4 cells/well) were seeded onto 96-well plates and incubated for 24 h at 37° C. After cell stabilization, the culture medium was replaced with 100 μl of culture medium containing free PpIX or PpIX-TF conjugate (referred to herein as TF01), followed by incubation for 24 h. The cells were then washed twice with serum-free medium and cell viability was evaluated by MTT assay after 48 h. To determine the in vitro phototoxicity after laser irradiation, cells (1×10^4 cells/well) were seeded onto 96-well plates and incubated for 24 h at 37° C. The cells were then treated with free PpIX or a PpIX-TF conjugate (TF01). After 24 h incubation, the cells were washed twice with serum-free medium and irradiated at a light intensity of 150 mW/cm^2 using 450 nm or 627 nm LED light source for 30 min or 10 mW/cm^2 using a 635-nm laser source for 5-30 min (3 J/cm^2 to 18 J/cm^2). The cell viability of irradiated cells was evaluated by MTT assay after 24 h of incubation.
When laser dosage were increased, the corresponding IC50 values of PpIX-TF conjugate (TF01) were decreased.

HCT116 cells = assay: Intracellular ROS generation (cellrox reagent); type: cell-based
Description: To examine intracellular ROS generation by PpIX and PpIX-TF conjugate (TF01), HCT116 cells were seeded in 24-well, glass-bottomed plate and incubated with cellrox reagent (Thermo Fisher Scientific). After 30 min, the cells were washed three times by PBS and treated with PpIX or PpIX-TF conjugate (TF01). After 24 h of incubation, the cells were washed twice with PBS and then exposed to a 10 mW/cm^2 using a 635-nm laser source for 30 min. After irradiation, the fluorescence intensity of cells was measured by a microplate reader with excitation/emission at 485/520 nm. The values are expressed as fluorescence intensity ratio to control.

[3] = system: colorectal carcinoma cell line HCT116; assay: Cell uptake and imaging (fluorescence microscopy); type: cell-based
Description: Cancer cells were used to detect and compare cellular uptake of PpIX and PpIX-TF conjugate (referred to herein as TF01) in vitro. The cells were cultured in medium supplemented with 10% fetal bovine serum at 37° C. and 5% CO2. After incubating cells with PpIX-TF conjugate (TF01), images were viewed by confocal microscopy.
FIG. 9 depicts the fluorescence microscopic analysis of cellular uptake of recombinant TF in a colorectal carcinoma cell line HCT116.

[4] = Singlet oxygen / ROS generation by RNO bleaching; type: physicochemical; settings: relative to positive control methylene blue; RNO bleaching near 440 nm
Description: To determine singlet oxygen generation, singlet oxygen detection method was applied to a 3 ml aqueous solution containing the singlet oxygen generator, 50 µM of RNO and 8 mM of imidazole. The detection for absorption intensity of RNO near 440 nm was monitored to reflect the production of ROS by a UV-vis spectrophotometer after time intervals of laser exposure.

SK-Hep-1 cell = assay: Soft agar colony-formation assay; type: cell-based; settings: 10 ug/ml, 3 J/cm^2, 635-nm laser source
Description: To estimate the anchorage-independent growth ability of cells treated by PpIX-TF conjugate (referred to herein as TF01), 3×10^4 cells of SK-Hep-1 cell were seeded in 35 mm dish and incubated for 24 h at 37° C. The cells were then treated with a PpIX-TF conjugate (TF01) or medium control. After 24 h incubation, the cells were washed twice with serum-free medium and irradiated at a light intensity of 10 mW/cm^2 using a 635-nm laser source for 5 min. Then, 5000 cells were suspended in 0.3% noble agar and cells were allowed to grow for another 2 weeks. Colonies were stained with 0.02% Giemsa Stain Solution, and documented by scanning.

[5] = system: human hepatoma SK-HEP 1 xenograft; assay: In vivo PDT efficacy; settings: 400 mg/kg intravenously, followed by laser application (230 mW/cm^2, 260 J/cm^2, 635-nm); nude mice
Description: To test the in vivo PDT efficacy of PpIX-TF conjugate, nude mice bearing human hepatoma SK-HEP 1 xenograft were intravenously treated with PBS, 200 mg/kg or 400 mg/kg PpIX-TF conjugate (TF01) respectively (n=3-4 per group), followed by the laser application (at a light intensity 230 mW/cm^2, 260 J/cm^2, using a 635-nm laser source). Visible tumors were measured using two orthogonal measurements L and W (perpendicular to L), the volumes were calculated using the formula V=LW2/2 and recorded.

[6] = Solubility and dispersibility in aqueous buffer; type: physicochemical; settings: compared to PpIX in aqueous Tris-HCl buffer, 20 mM, pH 8.5
Description: Improvement in solubility and dispersibility of the PpIX-TF conjugate was compared to PpIX in aqueous Tris-HCl buffer, 20 mM, pH 8.5 (FIG. 6).

HCT 116 = assay: Cell phototoxicity assay (MTT); type: cell-based; settings: concentration greater than about 25 μg/ml
Description: as §1
(§2) For each cancer cell line, measurements were performed in dark and in the presence of 450 nm blue laser light or 627 nm red light.

HepG2 = assay: Cell phototoxicity assay (MTT); type: cell-based; settings: concentration greater than about 25 μg/ml
Description: as §1, §2

[7] = system: liver cancer cell line SK-Hep-1; assay: Cellular localization with MitoTracker, LysoTracker and ER-Tracker; type: cell-based
Description: The Mitotracker, lysotracker and ER-tracker (Thermo Fisher Scientific) were used to label mitochondria, lysosome and endoplasmic reticulum (ER) respectively. Two measures of correlation, the Pearson correlation coefficient (PCC) and the Mander's overlap coefficient (MOC) were calculated as depicted in the table below.

For “Batch 1: exemplary batch of PpIX-TF conjugate (TF01), molar ratio of PpIX to TF protein 0.690”, the emission properties ([1]; 5 mg/ml (approximately 53 μM PpIX) in Tris-HCl buffer 20 mM, pH 8.5, versus control 60 μM PpIX with 5% DMSO) was “greater”.

In the case of “TF01: conjugate of PpIX and recombinant TF (globin 2αβ2 tetramer); PpIX non-covalently associated with the protein”, the “IC50 values under different dosages of 635-nm laser excitation” value [2] is reported as “decreased”, the “intracellular ROS generation” value (HCT116 cells; 50 um/ml (batch 2), approximately 0.71 uM PpIX, 635-nm laser 10 mW/cm^2 30 min, versus control PpIX 0.75 uM) is reported as “greatly enhance” and the “cellular uptake / distribution of fluorescent signals” value [3] is reported as “widely distributed in the cytoplasm”. The “quantum yield of ROS” value [4] was “almost double that of methylene blue”, the “cancer cell soft agar colony formation” value (SK-Hep-1 cell) was “significantly inhibit” and the tumor volume [5] was “tumor regression”. For the same compound, the “pH dependence of the emission intensity” value ([1]; 50 mM Tris-HCl or potassium phosphate buffer, λmax=625 nm) was “wide pH range”, the solubility and dispersibility [6] was “Improvement” and the “survival rates of the cells” value (HCT 116; irradiation 450 nm blue light) was “markedly decrease”. For the same compound, the “survival rates of the cells” value (HCT 116; irradiation 627 nm red light) was “markedly decrease”, the “survival rates of the cells” value (HepG2; irradiation 450 nm blue light) was “markedly decrease” and the “survival rates of the cells” value (HepG2; irradiation 627 nm red light) was “markedly decrease”. For the same compound, the “Mander's overlap coefficient (MOC)” value ([7]; Endoplasmic reticulum) was 0.6908, the “Pearson correlation coefficient (PCC)” value ([7]; Endoplasmic reticulum) was 0.6076 and the “Mander's overlap coefficient (MOC)” value ([7]; Lysosome) was 0.4866. For the same compound, the “Pearson correlation coefficient (PCC)” value ([7]; Lysosome) was 0.4974, the “Mander's overlap coefficient (MOC)” value ([7]; Mitochondria) was 0.4684 and the “Pearson correlation coefficient (PCC)” value ([7]; Mitochondria) was 0.4922.

With `OO` [H2O2, reference compound] the “intracellular ROS generation” value (HCT116 cells; 100 uM, positive control, HCT116) was “increase”.
